Experimental data as given in article PMC9102066, “Cloning and Functional Characterization of Dog OCT1 and OCT2: Another Step in Exploring Species Differences in Organic Cation Transporters” (International Journal of Molecular Sciences, 2022).
Structures can show the parent of a compound that is named as a salt. Where two headings read alike, the source gives them in different places.

Key:
dog OCT1 = test: Uptake in HEK293 cells stably overexpressing dog OCT1; conditions: for Km at 2 min: dog; for CLint ± SEM, dOCT1: intrinsic clearance = vmax divided by KM for each experiment; for vmax ± SEM, dOCT1: OCT1-mediated uptake, HEK293, 2 min, 37 °C, pH 7.4, control cells subtracted; for fold higher transport capacity by dog than mouse OCT1 / fold lower affinity by dog than mouse OCT1: dog OCT1 versus mouse OCT1
Description: The total uptake is shown for the overexpressing and control cells (left hand side). OCT1-mediated uptake (right hand side) was calculated by subtracting the uptake of control cells (pcDNA5) from the uptake of OCT1-overexpressing cells. The means and standard errors of the means are shown for at least three independent experiments.
For generation and characterization, see the Supplementary Methods, Figure S7, and [29, 47]. Cells were cultured in Dulbecco’s Modified Eagle’s Medium (DMEM) supplemented with 10% FBS, 100 U/mL penicillin, and 100 µg/mL streptomycin at 37 °C and 5% CO2. Cells were passaged twice a week.
At 48 h prior to the experiment, 6 × 10^5 cells were seeded per well in 12-well plates pre-coated with poly-D-lysine.
Cellular uptake experiments were performed at 37 °C and pH 7.4 using Hanks’ Buffered Salt Solution (HBSS) supplemented with 10 mM HEPES (referred to as HBSS+ in the following). Cells were washed with 1 mL pre-warmed (37 °C) HBSS+ and uptake was initiated by adding 400 µL of pre-warmed HBSS+ containing the substrate. Uptake was allowed for exactly 2 min and stopped by adding 2 mL ice-cold HBSS+. Cells were washed twice with 2 mL ice-cold HBSS+ then lysed with 80% acetonitrile supplemented with internal standard. The intracellularly accumulated substrate concentrations were measured using LC-MS/MS as described in the following and normalized to the amount of total protein in the samples as measured using the bicinchoninic acid assay.
Intracellular substrate concentrations were quantified using LC-MS/MS. […] The pellet was reconstituted with 200 µL 0.1% formic acid and between 5 and 10 µL was injected into the LC-MS/MS system (Table S2).
An API4000 QTRAP tandem mass spectrometer with ESI interface (AB SCIEX, Darmstadt, Germany) coupled to a Shimadzu Nexera X2 UHPLC system with LC 30AD pumps and SiL 30AC autosampler (Shimadzu, Duisburg, Germany) was used for analysis.
Intrinsic clearance CLint was calculated by dividing vmax by KM for each experiment. Kinetic parameters were compared between OCT1 orthologs using an ANOVA followed by Tukey’s honestly significant difference post hoc comparisons in SPSS Statistics version 28 (SPSS Inc., IBM, Chicago, IL, USA).

mouse OCT1 = target: T1, mouse OCT1 (Mus musculus, UniProt O08966); test: Uptake in HEK293 cells stably overexpressing mouse OCT1; type: in vitro ADME; conditions: intrinsic clearance = vmax divided by KM for each experiment
T1 construct: expressed in transfected cells; host or cells: HEK293 (Flp-In system)
T1 sequence (O08966 1-556): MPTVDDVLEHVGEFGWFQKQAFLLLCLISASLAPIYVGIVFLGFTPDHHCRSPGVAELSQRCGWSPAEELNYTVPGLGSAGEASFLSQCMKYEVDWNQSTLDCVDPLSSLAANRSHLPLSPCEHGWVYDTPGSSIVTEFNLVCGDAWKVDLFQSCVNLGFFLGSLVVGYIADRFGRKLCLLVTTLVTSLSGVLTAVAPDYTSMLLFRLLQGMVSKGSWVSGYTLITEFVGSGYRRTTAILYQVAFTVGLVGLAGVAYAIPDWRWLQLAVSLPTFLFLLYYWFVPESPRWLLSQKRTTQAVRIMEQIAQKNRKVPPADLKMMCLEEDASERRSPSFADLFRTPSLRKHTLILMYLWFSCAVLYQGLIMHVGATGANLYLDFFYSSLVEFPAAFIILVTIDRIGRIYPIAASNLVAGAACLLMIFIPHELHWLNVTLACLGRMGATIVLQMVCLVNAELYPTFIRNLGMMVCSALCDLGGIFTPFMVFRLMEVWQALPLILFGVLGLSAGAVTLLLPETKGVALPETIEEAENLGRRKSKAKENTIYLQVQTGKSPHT
Excerpt: (§1) Cells were passaged twice a week.
(§2) Intracellular substrate concentrations were quantified using LC-MS/MS.

human OCT1 = target: T2, human OCT1 (Homo sapiens, UniProt O15245); test: Uptake in HEK293 cells stably overexpressing human OCT1; type: in vitro ADME; conditions: for CLint ± SEM, hOCT1: intrinsic clearance = vmax divided by KM for each experiment
T2 construct: expressed in transfected cells; host or cells: HEK293 (Flp-In system)
T2 sequence (O15245 1-554): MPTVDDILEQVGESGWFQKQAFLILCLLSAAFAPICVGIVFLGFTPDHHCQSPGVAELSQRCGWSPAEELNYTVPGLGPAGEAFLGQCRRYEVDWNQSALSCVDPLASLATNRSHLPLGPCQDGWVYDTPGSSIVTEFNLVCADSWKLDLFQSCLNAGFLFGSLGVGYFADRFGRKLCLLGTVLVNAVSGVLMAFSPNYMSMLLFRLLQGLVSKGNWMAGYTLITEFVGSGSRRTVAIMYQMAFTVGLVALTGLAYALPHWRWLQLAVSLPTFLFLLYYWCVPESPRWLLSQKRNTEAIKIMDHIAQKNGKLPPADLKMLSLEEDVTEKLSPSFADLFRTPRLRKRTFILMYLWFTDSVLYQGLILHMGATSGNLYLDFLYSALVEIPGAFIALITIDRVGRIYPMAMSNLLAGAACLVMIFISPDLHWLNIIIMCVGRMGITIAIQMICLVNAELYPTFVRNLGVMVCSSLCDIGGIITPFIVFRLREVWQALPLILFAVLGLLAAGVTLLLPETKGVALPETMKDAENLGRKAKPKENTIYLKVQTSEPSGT
Excerpt: as §1, §2

human OCT2 = target: T3, human OCT2 (Homo sapiens, UniProt O15244); test: Uptake in HEK293 cells stably overexpressing human OCT2; type: in vitro ADME; conditions: for CLint ± SEM, hOCT2: intrinsic clearance = vmax divided by KM for each experiment
T3 construct: expressed in transfected cells; host or cells: HEK293 (Flp-In system)
T3 sequence (O15244 1-555): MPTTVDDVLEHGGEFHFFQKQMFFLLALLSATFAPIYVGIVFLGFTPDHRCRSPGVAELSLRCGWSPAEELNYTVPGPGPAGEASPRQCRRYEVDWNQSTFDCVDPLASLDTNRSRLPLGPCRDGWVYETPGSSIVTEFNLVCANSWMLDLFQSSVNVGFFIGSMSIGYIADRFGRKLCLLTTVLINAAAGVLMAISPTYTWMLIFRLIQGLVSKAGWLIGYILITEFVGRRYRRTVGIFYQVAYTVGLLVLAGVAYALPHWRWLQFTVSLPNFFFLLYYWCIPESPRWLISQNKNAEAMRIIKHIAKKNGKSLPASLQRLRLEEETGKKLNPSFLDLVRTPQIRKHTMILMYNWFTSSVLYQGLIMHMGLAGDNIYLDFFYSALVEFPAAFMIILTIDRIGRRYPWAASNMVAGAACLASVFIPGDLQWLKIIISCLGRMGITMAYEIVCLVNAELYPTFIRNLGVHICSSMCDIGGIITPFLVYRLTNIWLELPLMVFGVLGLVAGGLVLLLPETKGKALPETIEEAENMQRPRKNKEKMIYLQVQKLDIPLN
Excerpt: as §1, §2

dog OCT2 = test: Uptake in HEK293 cells stably overexpressing dog OCT2; type: in vitro ADME; conditions: for vmax ± SEM, dOCT2 / Km at 2 min: OCT2-mediated uptake, HEK293, 2 min; for vmax ± SEM, dOCT2: 37 °C, pH 7.4, control cells subtracted; for Km at 2 min: dog, Michaelis–Menten fit, read-out: KM ± SEM, dOCT2; for CLint ± SEM, dOCT2: intrinsic clearance = vmax divided by KM for each experiment
Excerpt: as §1, §2

[1] = HEK293 cells stably overexpressing dog OCT1, pH 7.4

Row | Structure (SMILES) | Km at 2 min (dog OCT1; pH 7.4) [µM] | CLint ± SEM, dOCT1 (dog OCT1) | CLint ± SEM, mOCT1 (mouse OCT1) | CLint ± SEM, hOCT1 (human OCT1) | CLint ± SEM, hOCT2 (human OCT2) | vmax ± SEM, dOCT2 (dog OCT2) | CLint ± SEM, dOCT2 (dog OCT2) | vmax ± SEM, dOCT1 (dog OCT1) | fold higher transport capacity by dog than mouse OCT1 (dog OCT1) [fold] | fold lower affinity by dog than mouse OCT1 (dog OCT1) [fold] | Km at 2 min (dog OCT1; [1]) [µM] | other results
1 | CC(Cc1ccc(O)cc1)NCC(O)c1cc(O)cc(O)c1 (stereo not shown) [Fenoterol, Fenoterol hydrochloride] | 16.8 ± 1.09 | 80.7 ± 7.76 µL × min^−1 × mg Protein^−1 | 88.5 ± 15.5 µL × min^−1 × mg Protein^−1 | 88.3 ± 3.85 µL × min^−1 × mg Protein^−1 | 28.0 ± 0.95 µL × min^−1 × mg Protein^−1 | – | – | – | – | – | – | fold lower affinity (higher KM) by dog OCT1 than human OCT1 (dog OCT1; dog OCT1 versus human OCT1): 14.3 fold; CLint ± SEM, dOCT1 (dog OCT1; listed as fenoterol): 80.7 µL × min^−1 × mg Protein^−1; CLint ± SEM, mOCT1 (mouse OCT1; listed as fenoterol): 88.5 µL × min^−1 × mg Protein^−1; fold higher affinity (human OCT1 relative to dog OCT1, as worded in the discussion) (human OCT1; discussion wording, direction not spelled out): 14.3 fold; CLint ± SEM, hOCT1 (human OCT1; listed as fenoterol): 88.3 µL × min^−1 × mg Protein^−1
2 | O=C(O[C@H]1C[C@H]2CC[C@@H](C1)[N+]21CCCC1)C(O)(c1ccccc1)c1ccccc1 [Trospium, trospium chloride] | 5.72 ± 0.3 | 146 ± 10.3 µL × min^−1 × mg Protein^−1 | 180 ± 37.5 µL × min^−1 × mg Protein^−1 | 117 ± 12.7 µL × min^−1 × mg Protein^−1 | 278 ± 40.5 µL × min^−1 × mg Protein^−1 | 224 ± 14.6 pmol × min^−1 × mg Protein^−1 | 106 ± 8.78 µL × min^−1 × mg Protein^−1 | 835 ± 64.9 pmol × min^−1 × mg Protein^−1 | 3.4 | 4.4 | – | fold lower affinity by dog OCT2 than human OCT2 (dog OCT2; dog OCT2 versus human OCT2): 5.7 fold; Km at 2 min (dog OCT2; pH 7.4): 2.18 ± 0.27 µM
3 | CCCC[N+]1(C)[C@@H]2C[C@@H](OC(=O)[C@H](CO)c3ccccc3)C[C@H]1[C@@H]1O[C@@H]12 (stereo partly shown) [Butylscopolamine, butylscopolamine bromide] | – | 80.5 ± 12.3 µL × min^−1 × mg Protein^−1 | 131 ± 25.6 µL × min^−1 × mg Protein^−1 | 84.4 ± 6.76 µL × min^−1 × mg Protein^−1 | 81.6 ± 2.16 µL × min^−1 × mg Protein^−1 | – | – | 1383 ± 112 pmol × min^−1 × mg Protein^−1 | 1.8 | 2.9 | 18.7 ± 3.32 | fold lower transport by dog OCT2 compared to human OCT2 (dog OCT2; dog OCT2 versus human OCT2): 10 fold; uptake by dog OCT2 cells compared to control cells, in words (dog OCT2; especially at low concentrations, data could not be fitted to the Michaelis–Menten equation): only a slight increase; difference in uptake kinetics between dog and human OCT1, in words (dog OCT1; dog OCT1 versus human OCT1): no significant differences; CLint ± SEM, dOCT1 (dog OCT1; listed as butylscopolamine): 122 µL × min^−1 × mg Protein^−1
4 | CN(C)C(=N)N=C(N)N [Metformin, metformin hydrochloride] | – | 63.1 ± 12.0 µL × min^−1 × mg Protein^−1 | 38.7 ± 6.23 µL × min^−1 × mg Protein^−1 | – | 39.9 ± 5.27 µL × min^−1 × mg Protein^−1 | 21,578 ± 606 pmol × min^−1 × mg Protein^−1 | 59.2 ± 2.76 µL × min^−1 × mg Protein^−1 | 11,373 ± 714 pmol × min^−1 × mg Protein^−1 | – | – | 204 ± 41.8 | Km at 2 min (dog OCT2; HEK293 cells stably overexpressing dog OCT2, pH 7.4): 365 ± 11.5 µM; vmax ± SEM, hOCT1 (human OCT1; OCT1-mediated uptake, HEK293, 2 min, 37 °C, pH 7.4, control cells subtracted): 10,465 ± 1306 pmol × min^−1 × mg Protein^−1; Km at 2 min (human OCT1; human, HEK293 cells stably overexpressing human OCT1, pH 7.4, OCT1-mediated uptake, HEK293, 2 min, Michaelis–Menten fit, read-out: KM ± SEM, hOCT1): 1090 ± 297 µM; vmax ± SEM, hOCT2 (human OCT2; OCT2-mediated uptake, HEK293, 2 min, 37 °C, pH 7.4, control cells subtracted): 29,650 ± 1457 pmol × min^−1 × mg Protein^−1; Km at 2 min (human OCT2; human, HEK293 cells stably overexpressing human OCT2, pH 7.4, OCT2-mediated uptake, HEK293, 2 min, Michaelis–Menten fit, read-out: KM ± SEM, hOCT2): 766 ± 95.4 µM
